Experimental data taken from patent publication US6423718B1, “4,4-disubstituted-3,4-dihydro-2(1H)-quinazolinones useful as HIV reverse transcriptase inhibitors” (Bristol-Myers Squibb Pharma Company, priority 1997, dated 2002).
≈ marks a conversion by molar mass, not a printed value.

Columns and labels:
[1] = test system: HIV-1 (RF); test: HIV RNA assay: microplate based compound evaluation in HIV-1 infected MT-2 cells (IC90); format: cell-based; conditions: Human immunodeficiency virus 1, MT2, 72 h; HIV-1 (RF) infected MT-2 cells, 3 days of culture; virus dilutions selected to standardize the inoculum; read-out: IC90 value (concentration of compound required to reduce the HIV RNA level by 90%)
Protocol: Plasmid pDAB 72 containing both gag and pol sequences of BH10 (bp 113-1816) cloned into PTZ 19R was prepared according to Erickson-Viitanen et al. AIDS Research and Human Retroviruses 1989, 5, 577. The plasmid was linearized with Ban HI prior to the generation of in vitro RNA transcripts using the Riboprobe Gemini system II kit (Promega) with T7 RNA polymerase. Synthesized RNA was purified by treatment with RNase free DNAse (Promega), phenol-chloroform extraction, and ethanol precipitation. RNA transcripts were dissolved in water, and stored at −70° C. The concentration of RNA was determined from the A260.
Biotinylated capture probes were purified by HPLC after synthesis on an Applied Biosystems (Foster City, Calif.) DNA synthesizer by addition of biotin to the 5′ terminal end of the oligonucleotide, using the biotin-phosphoramidite reagent of Cocuzza, Tet. Lett. 1989, 30, 6287. […]
MT-2 and MT-4 cells were maintained in RPMI 1640 supplemented with 5% fetal calf serum (FCS) for MT-2 cells or 10% FCS for MT-4 cells, 2 mM L-glutamine and 50 μg/mL gentamycin, all from Gibco. […] Infectious titers of HIV-1 (RF) stocks were 1-3×10^7 PFU (plaque forming units)/mL as measured by plaque assay on MT-2 cells (see below). […]

SMILES | melting point [°C] | IC90 [1] [µg/mL]
CC(C)CCC1(C(F)(F)F)NC(=O)Nc2ccc(F)c(F)c21 (racemic) [Example 15, (+/−)-5,6-Difluoro-4-isopentyl-4-trifluoromethyl-3,4-dihydro-2(1H)-quinazolinone] | 192 to 193 | 
O=C1Nc2ccc(F)cc2C(C#CC2CC2)(C(F)(F)F)N1 (racemic) [Example 17, (+/−)-4-Cyclopropylethynyl-6-fluoro-4-trifluoromethyl-3,4-dihydro-2(1H)-quinazolinone] | 155 | 
CC(C)CCC1(C(F)(F)F)NC(=O)Nc2ccc(F)cc21 (racemic) [Example 22, (+/−)-6-Fluoro-4-isopentyl-4-trifluoromethyl-3,4-dihydro-2(1H)-quinazolinone] | 179 | 
COc1ccc2c(c1)C(C#CC1CC1)(C(F)(F)F)NC(=O)N2 (racemic) [Example 6, (+/−)-4-Cyclopropylethynyl-6-methoxy-4-trifluoromethyl-3,4-dihydro-2(1H)-quinazolinone] | 208 | 
O=C1Nc2ccc(F)cc2C(CCc2ccccc2)(C(F)(F)F)N1 (racemic) [Example 25, (+/−)-6-Fluoro-4-phenylethyl-4-trifluoromethyl-3,4-dihydro-2(1H)-quinazolinone] | 98 | 
CCCCC1(C(F)(F)F)NC(=O)Nc2ccc(F)cc21 (racemic) [Example 24, (+/−)-4-Butyl-6-fluoro-4-trifluoromethyl-3,4-dihydro-2(1H)-quinazolinone] | 198 | 
Nc1ccn([C@H]2CC[C@@H](CO)O2)c(=O)n1 [ddC, 2′,3′-dideoxycytidine] |  | 0.2 (≈ 0.947 µM)
